In PubChem BioAssay AID1918991 (Molecular Pharmacology Branch, DTP, NCI, 2023):

System: 186277-243-T-J2-PDC complex spheroid growth
Assay: Anticancer human tumor 186277-243-T-J2-PDC patient-derived colon adenocarcinoma cell line growth inhibition [AhR]
Conditions: for IC50: curve of first compound; for viability, T/C: stronger effect = lower value
Procedure, shortened: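 Agents were dosed in half-log steps down from roughly clinical Cmax, or from 10 microM where Cmax was unknown, alone and with AhR antagonists. Read-out: percent test/control growth of tumor spheroids containing HUVEC and MSC stromal cells.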

[1] = second compound 0.1 µM, first compound 0.0316 µM
[2] = second compound 0.1 µM, first compound 0.1 µM
[3] = second compound 0.1 µM, first compound 0.316 µM
[4] = second compound 0.1 µM, first compound 1 µM
[5] = second compound 0.316 µM, first compound 0.0316 µM
[6] = second compound 0.316 µM, first compound 0.1 µM
[7] = second compound 0.316 µM, first compound 0.316 µM
[8] = second compound 0.316 µM, first compound 1 µM
[9] = second compound 1 µM, first compound 0.0316 µM
[10] = second compound 1 µM, first compound 0.1 µM
[11] = second compound 1 µM, first compound 0.316 µM
[12] = second compound 1 µM, first compound 1 µM
[13] = second compound 3.16 µM, first compound 0.0316 µM
[14] = second compound 3.16 µM, first compound 0.1 µM
[15] = second compound 3.16 µM, first compound 0.316 µM
[16] = second compound 3.16 µM, first compound 1 µM
[17] = second compound 10 µM, first compound 0.0316 µM
[18] = second compound 10 µM, first compound 0.1 µM
[19] = second compound 10 µM, first compound 0.316 µM
[20] = second compound 10 µM, first compound 1 µM
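Further: spheroids exposed to compounds for seven days before the viability read.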
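Wherever viability, T/C is given: luminescent signal used as a stand-in for viable cell amount; 100% = DMSO vehicle control wells.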

Structure (SMILES)	IC50 (second compound 0.1 µM)	IC50 (second compound 0.316 µM)	IC50 (second compound 1 µM)	IC50 (second compound 3.16 µM)	IC50 (second compound 10 µM)	viability, T/C [1]	viability, T/C [2]	viability, T/C [3]	viability, T/C [4]	viability, T/C [5]	viability, T/C [6]	viability, T/C [7]	viability, T/C [8]	viability, T/C [9]	viability, T/C [10]	viability, T/C [11]	viability, T/C [12]	viability, T/C [13]	viability, T/C [14]	viability, T/C [15]	further results
CC(C)c1c(-c2ccccc2)nc2c(C#N)c[nH]n2c1=O + CC(CO)NC(=O)c1cc(-c2ccc(Cl)cc2)nn(-c2cnn(C)c2)c1=O	> 10000 nM	> 10000 nM	> 10000 nM	> 10000 nM	> 10000 nM	95.2%	93.5%	88.4%	95.5%	99.5%	100%	109%	92.9%	104%	113%	105%	104%	92.2%	85.1%	91.9%	viability, T/C (second compound 0.1 µM, first compound 3.16 µM): 89.5%; viability, T/C (second compound 0.1 µM, first compound 10 µM): 79.6%; viability, T/C (second compound 0.316 µM, first compound 3.16 µM): 99.2%; viability, T/C (second compound 0.316 µM, first compound 10 µM): 91.7%; viability, T/C (second compound 1 µM, first compound 3.16 µM): 86.4%; viability, T/C (second compound 1 µM, first compound 10 µM): 93.8%; viability, T/C [16]: 89.8%; viability, T/C (second compound 3.16 µM, first compound 3.16 µM): 87.3%; viability, T/C (second compound 3.16 µM, first compound 10 µM): 95%; viability, T/C [17]: 90.2%; viability, T/C [18]: 85.1%; viability, T/C [19]: 81.8%; viability, T/C [20]: 85.5%; viability, T/C (second compound 10 µM, first compound 3.16 µM): 76.9%; viability, T/C (second compound 10 µM, first compound 10 µM): 87.3%
CC1COCCN1c1cc(-c2ccnn2C)c2ccnc(-c3ccn[nH]3)c2n1 (stereo not given) + CC(CO)NC(=O)c1cc(-c2ccc(Cl)cc2)nn(-c2cnn(C)c2)c1=O	24.3 nM	23.6 nM	20.4 nM	19.2 nM	11.4 nM	38.1%	7.53%	3.44%	2.42%	37.5%	6.69%	2.84%	2.25%	34.2%	6.17%	3.4%	2.51%	24.2%	6.02%	3.47%	viability, T/C (second compound 0.1 µM, first compound 0.00316 µM): 100%; viability, T/C (second compound 0.1 µM, first compound 0.01 µM): 89.9%; viability, T/C (second compound 0.316 µM, first compound 0.00316 µM): 91%; viability, T/C (second compound 0.316 µM, first compound 0.01 µM): 86.3%; viability, T/C (second compound 1 µM, first compound 0.00316 µM): 103%; viability, T/C (second compound 1 µM, first compound 0.01 µM): 77%; viability, T/C (second compound 3.16 µM, first compound 0.00316 µM): 82.3%; viability, T/C (second compound 3.16 µM, first compound 0.01 µM): 84.8%; viability, T/C [16]: 2.6%; viability, T/C (second compound 10 µM, first compound 0.00316 µM): 79.3%; viability, T/C (second compound 10 µM, first compound 0.01 µM): 54.1%; viability, T/C [17]: 18.2%; viability, T/C [18]: 6.38%; viability, T/C [19]: 3.92%; viability, T/C [20]: 2.78%
